Where “and” joins values, the source holds several entries; their conditions need not be identical. Equal values may be shown once. Read-outs that look alike come from different tables or passages of the source.
Assays:
human MAO-A [1] = target: T1, human MAO-A (Homo sapiens, UniProt P21397); test: Inhibition kinetics and time course of MAO-A inhibition; type: biochemical; details: for reversibility of MAO-A inhibition: time course, absorbance of 4-hydroxyquinoline at 316 nm, inhibitor close to IC50
T1 construct: purchased Sigma Aldrich; host or cells: insect cells infected with baculovirus (microsomes)
T1 sequence (P21397 1-527): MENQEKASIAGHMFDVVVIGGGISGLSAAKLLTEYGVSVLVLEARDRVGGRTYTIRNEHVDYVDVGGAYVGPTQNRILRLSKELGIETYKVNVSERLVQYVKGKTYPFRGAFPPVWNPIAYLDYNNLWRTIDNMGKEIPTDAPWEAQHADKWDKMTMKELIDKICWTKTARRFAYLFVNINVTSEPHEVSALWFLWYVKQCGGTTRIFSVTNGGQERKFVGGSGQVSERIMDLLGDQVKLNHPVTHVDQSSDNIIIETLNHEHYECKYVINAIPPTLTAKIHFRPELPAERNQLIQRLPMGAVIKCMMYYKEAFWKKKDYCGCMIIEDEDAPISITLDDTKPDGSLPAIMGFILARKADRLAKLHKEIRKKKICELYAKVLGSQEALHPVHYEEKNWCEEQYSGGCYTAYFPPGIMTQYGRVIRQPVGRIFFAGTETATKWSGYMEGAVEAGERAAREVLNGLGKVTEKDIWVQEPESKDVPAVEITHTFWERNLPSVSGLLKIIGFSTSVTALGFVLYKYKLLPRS
Description: For the sake of clarity, the position of the Mannich base (-CH2NR2) on the main coumarin core will be indicated as C8, whereas the positions of Cl or Br and OMe on the 4-coumarin-3-yl moiety will be indicated as C6′ and C8′.
Time courses of MAO-A inhibition by 2b and 5b, using a spectrophotometric assay measuring the absorbance of 4-
(1 picture or pasted object on this page, not shown here)

horse serum eqBChE = target: T2, horse serum eqBChE (Equus caballus, UniProt P81908); test: biochemical; type: biochemical; details: for inhibition at 10 µM / eqBChE % inhibition / eqBChE inhibition class: at 10 µM concentration
T2 construct: Acetylcholinesterase from electric eel and butyrylcholinesterase from equine serum (Sigma Aldrich) were employed; purchased Sigma Aldrich; host or cells: equine serum
T2 sequence (P81908 whole entry): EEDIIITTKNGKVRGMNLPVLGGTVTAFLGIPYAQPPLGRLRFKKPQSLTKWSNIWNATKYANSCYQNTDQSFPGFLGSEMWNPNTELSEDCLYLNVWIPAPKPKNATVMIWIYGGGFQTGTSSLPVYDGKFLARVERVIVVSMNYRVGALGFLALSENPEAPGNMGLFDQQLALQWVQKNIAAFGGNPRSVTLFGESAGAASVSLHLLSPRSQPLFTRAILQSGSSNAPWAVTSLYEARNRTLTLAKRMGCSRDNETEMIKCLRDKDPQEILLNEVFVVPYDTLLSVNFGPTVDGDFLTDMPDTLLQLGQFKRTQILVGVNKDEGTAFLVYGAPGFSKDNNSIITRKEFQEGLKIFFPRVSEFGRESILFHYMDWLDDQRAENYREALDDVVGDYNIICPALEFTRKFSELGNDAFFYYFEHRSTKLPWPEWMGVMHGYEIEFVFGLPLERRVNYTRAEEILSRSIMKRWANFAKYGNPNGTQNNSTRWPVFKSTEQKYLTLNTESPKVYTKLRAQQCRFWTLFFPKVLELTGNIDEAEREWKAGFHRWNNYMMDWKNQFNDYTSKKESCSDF
Protocol: (§1) Cholinesterase inhibition assays were carried out using the Ellman spectrophotometric method, modified for a 96-well plate format. Acetylcholinesterase from electric eel and butyrylcholinesterase from equine serum (Sigma Aldrich) were employed. The measurements were performed in triplicate using clear, flat-bottom polystyrene plates (Greiner Bio-One).

human MAO-A [2] = target: T1, human MAO-A; test: biochemical; type: biochemical; details: for inhibition at 10 µM / huMAO-A % inhibition: at 10 µM concentration, mean ± SD; for IC50: mean ± SD of three independent determinations, ~10 means 50–60% inhibition at 10 µM
Protocol: (§2) The inhibition assays of human monoamine oxidases were conducted using a fluorescence-based method with kynuramine as a non-selective substrate for each isoform, MAO-A/B [44, 45, 46]. Recombinant human MAO-A and MAO-B (microsomes from insect cells infected with baculovirus; Sigma Aldrich, St. Louis, MO, USA) (Merk Life Science S.r.l., Milan, Italy) were used. The measurements were performed in triplicate in black round-bottom polystyrene 96-well plates (Greiner Bio-One, Kremsmünster, Austria). […] In the MAO inhibition assays, all compounds were initially screened at a concentration of 10 µM. Each of them was preincubated at 37 °C for 20 min with 50 µM kynuramine in a phosphate buffer (PBS, 0.1 M, pH 8.0), adjusted to 0.39 osmolarity with KCl. After adding recombinant human MAO-A/B (250 U/mg and 59 U/mg, respectively) and incubating for another 30 min, NaOH was added. The fluorescence was measured at excitation/emission wavelengths of 310/400 nm. […] The IC50 is reported as the mean ± SD of three independent experiments, each performed in duplicate.

human huMAO-B = target: T3, human huMAO-B (Homo sapiens, UniProt P27338); test: biochemical; type: biochemical; details: for inhibition at 10 µM / huMAO-B % inhibition: at 10 µM concentration, mean ± SD
T3 construct: purchased Sigma Aldrich; host or cells: insect cells infected with baculovirus (microsomes)
T3 sequence (P27338 1-520): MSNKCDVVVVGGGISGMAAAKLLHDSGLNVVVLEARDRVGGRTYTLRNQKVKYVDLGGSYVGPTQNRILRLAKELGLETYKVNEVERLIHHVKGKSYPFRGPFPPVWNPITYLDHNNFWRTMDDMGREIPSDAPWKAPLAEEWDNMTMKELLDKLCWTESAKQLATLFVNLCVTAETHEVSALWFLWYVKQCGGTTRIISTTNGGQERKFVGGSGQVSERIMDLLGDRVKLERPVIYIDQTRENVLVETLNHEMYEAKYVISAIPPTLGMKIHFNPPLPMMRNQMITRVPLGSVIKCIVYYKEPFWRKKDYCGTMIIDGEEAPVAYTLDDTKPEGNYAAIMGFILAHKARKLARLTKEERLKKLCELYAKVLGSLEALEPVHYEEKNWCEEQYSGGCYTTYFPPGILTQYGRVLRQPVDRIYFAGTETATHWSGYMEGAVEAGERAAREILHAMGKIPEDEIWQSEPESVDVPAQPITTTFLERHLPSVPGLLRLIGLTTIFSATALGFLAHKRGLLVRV
Protocol: as §2

electric eel eeAChE = target: T4, electric eel eeAChE (Electrophorus electricus, UniProt O42275); test: biochemical; details: for inhibition at 10 µM / eeAChE % inhibition: at 10 µM concentration, mean ± SD; for IC50: mean ± SD of three independent determinations, ~10 means 50–60% inhibition at 10 µM
T4 construct: Acetylcholinesterase from electric eel and butyrylcholinesterase from equine serum (Sigma Aldrich) were employed; purchased Sigma Aldrich; host or cells: electric eel (natural source)
T4 sequence (O42275 24-633): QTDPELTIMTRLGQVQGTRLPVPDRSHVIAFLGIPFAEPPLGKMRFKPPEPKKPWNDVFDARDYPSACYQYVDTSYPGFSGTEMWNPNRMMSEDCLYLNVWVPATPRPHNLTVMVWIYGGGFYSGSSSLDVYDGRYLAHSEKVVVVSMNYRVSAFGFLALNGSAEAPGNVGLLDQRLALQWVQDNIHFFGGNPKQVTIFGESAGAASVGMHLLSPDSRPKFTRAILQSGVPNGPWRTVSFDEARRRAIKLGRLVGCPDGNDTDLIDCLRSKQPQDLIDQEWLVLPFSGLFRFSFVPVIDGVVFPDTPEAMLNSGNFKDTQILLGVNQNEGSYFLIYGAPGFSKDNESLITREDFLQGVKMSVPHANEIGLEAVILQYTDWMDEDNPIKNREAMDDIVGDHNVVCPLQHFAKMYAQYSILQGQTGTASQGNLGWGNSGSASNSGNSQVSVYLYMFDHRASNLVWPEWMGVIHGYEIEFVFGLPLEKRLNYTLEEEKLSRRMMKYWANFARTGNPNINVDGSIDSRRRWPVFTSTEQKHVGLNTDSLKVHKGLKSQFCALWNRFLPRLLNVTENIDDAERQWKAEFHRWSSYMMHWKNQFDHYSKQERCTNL

human huAChE = human huAChE (Homo sapiens, UniProt P22303); test: biochemical; type: biochemical
Sequence of human huAChE (P22303 32-614): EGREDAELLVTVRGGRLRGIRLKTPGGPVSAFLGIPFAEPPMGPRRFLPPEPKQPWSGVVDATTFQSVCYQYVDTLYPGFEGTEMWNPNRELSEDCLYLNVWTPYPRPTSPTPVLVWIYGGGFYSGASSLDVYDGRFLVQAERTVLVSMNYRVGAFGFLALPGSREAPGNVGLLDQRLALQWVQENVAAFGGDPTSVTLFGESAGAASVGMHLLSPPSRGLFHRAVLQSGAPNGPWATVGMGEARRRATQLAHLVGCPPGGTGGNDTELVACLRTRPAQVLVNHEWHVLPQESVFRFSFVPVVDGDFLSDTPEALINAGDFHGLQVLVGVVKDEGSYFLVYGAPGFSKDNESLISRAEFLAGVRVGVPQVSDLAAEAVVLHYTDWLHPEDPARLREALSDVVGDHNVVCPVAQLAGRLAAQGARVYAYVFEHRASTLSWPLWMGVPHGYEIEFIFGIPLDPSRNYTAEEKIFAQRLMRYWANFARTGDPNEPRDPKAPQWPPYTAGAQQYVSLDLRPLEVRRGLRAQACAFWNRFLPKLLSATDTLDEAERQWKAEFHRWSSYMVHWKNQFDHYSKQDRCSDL
Protocol: The inhibition of human huAChE was also evaluated for five compounds.
as §1

[3] = mean ± SD, read-out: eqBChE % inhibition
[4] = mean ± SD of three independent determinations, ~10 means 50–60% inhibition at 10 µM

| SMILES | inhibition at 10 µM (horse serum eqBChE; [3]) [%] | inhibition at 10 µM (human MAO-A [2]) [%] | inhibition at 10 µM (human huMAO-B) [%] | IC50 (electric eel eeAChE) | eeAChE % inhibition (electric eel eeAChE) | huMAO-A % inhibition (human MAO-A [2]) | huMAO-B % inhibition (human huMAO-B) | further results |
| --- | --- | --- | --- | --- | --- | --- | --- | --- |
| C#CCN(C)CCCOc1ccc(Cl)cc1Cl [Clorgiline, reference compound] | – | – | – | – | – | – | – | reversibility of MAO-A inhibition (human MAO-A [1]): completely flattened |
| CCCN(CCC)Cc1c(O)ccc2c(-c3cc4ccccc4oc3=O)cc(=O)oc12 [Compound 4a] | 22 | 29 | 33 | – | – | – | – | inhibition at 10 µM (electric eel eeAChE): 37% |
| CCCN(CCC)Cc1c(O)ccc2c(-c3cc4cccc(OC)c4oc3=O)cc(=O)oc12 [Compound 4d, 8-((dipropylamino)methyl)-4-(8-methoxy-2-oxo-2H-chromen-3-yl)-7-hydroxy-2H-chromen-2-one] | 14 | 29 | 43 | < 10 µM and 3.05 µM | – | – | – | IC50 (human huAChE): 0.97 ± 0.2 µM |
| CCCCN(C)Cc1c(O)ccc2c(-c3cc4cc(Cl)ccc4oc3=O)cc(=O)oc12 [Compound 5b] | – | – | – | – | [25 ± 5] % | – | – | mode of inhibition of MAO-A (human MAO-A [1]; Michaelis–Menten and Lineweaver–Burk plots): competitive; Ki (human MAO-A [1]; human MAO-A, competitive inhibition, read-out: inhibition constant (Ki) MAO-A): 0.326 µM; reversibility of MAO-A inhibition (human MAO-A [1]): reversible; eqBChE % inhibition (horse serum eqBChE; mean ± SD): [17 ± 7] %; IC50 (human MAO-A [2]): 1.85 ± 0.11 µM; IC50 (human huMAO-B; [4]): ~10 µM; IC50 (human huAChE; [4]): ~10 µM |
| CCCCN(C)Cc1c(O)ccc2c(-c3cc4cccc(OC)c4oc3=O)cc(=O)oc12 [Compound 5d, 8-((butyl(methyl)amino)methyl)-4-(8-methoxy-2-oxo-2H-chromen-3-yl)-7-hydroxy-2H-chromen-2-one] | 40 | 39 | – | < 10 µM and 7.8 µM | – | – | – | IC50 (human huMAO-B): ~10 µM |
| COCCN(CCOC)Cc1c(O)ccc2c(-c3cc4cc(Cl)ccc4oc3=O)cc(=O)oc12 [Compound 6b] | – | – | – | – | [16 ± 4] % | [45 ± 3] % | [35 ± 9] % | eqBChE inhibition class (horse serum eqBChE): i.a. (compounds displaying average % inhibition less than 10% at 10 µM concentration) |
| COCCN(CCOC)Cc1c(O)ccc2c(-c3cc4cccc(OC)c4oc3=O)cc(=O)oc12 [Compound 6d, 8-((bis(2-methoxyethyl)amino)methyl)-4-(8-methoxy-2-oxo-2H-chromen-3-yl)-7-hydroxy-2H-chromen-2-one] | – | 26 | 31 | – | – | – | – | inhibition at 10 µM (horse serum eqBChE; read-out: eqBChE inhibition class): < 10%; inhibition at 10 µM (electric eel eeAChE): 20% |
| COc1cccc2cc(-c3cc(=O)oc4c(CN(CC(C)C)CC(C)C)c(O)ccc34)c(=O)oc12 [Compound 7d] | – | – | – | ~10 µM | – | [27 ± 3] % | [31 ± 2] % | eqBChE % inhibition (horse serum eqBChE; mean ± SD): [34 ± 3] % |
| CN(Cc1ccccc1)Cc1c(O)ccc2c(-c3cc4cc(Cl)ccc4oc3=O)cc(=O)oc12 [Compound 8b] | – | – | – | – | [16 ± 6] % | – | [38 ± 3] % | eqBChE inhibition class (horse serum eqBChE): i.a. (compounds displaying average % inhibition less than 10% at 10 µM concentration); IC50 (human MAO-A [2]): ~10 µM |
| COc1cccc2cc(-c3cc(=O)oc4c(CN(C)Cc5ccccc5)c(O)ccc34)c(=O)oc12 [Compound 8d] | – | – | – | ~10 µM | – | [31 ± 4] % | [42 ± 3] % | IC50 (horse serum eqBChE; [4]): ~10 µM |
